target: T1, AHR (Homo sapiens, UniProt P35869); test: In vitro assay 1: antagonism in human cell line (AHR transactivation, firefly luciferase reporter, kynurenic acid prestimulated); format: cell-based; settings: AHR Antagonism Human IC50 [M]
T1 construct: U87 MG glioblastoma cells (ATCC #HTB-14) endogenously expressing AHR; endogenous in cells; host or cells: U87 MG glioblastoma cells (ATCC #HTB-14)
T1 sequence (P35869 11-848): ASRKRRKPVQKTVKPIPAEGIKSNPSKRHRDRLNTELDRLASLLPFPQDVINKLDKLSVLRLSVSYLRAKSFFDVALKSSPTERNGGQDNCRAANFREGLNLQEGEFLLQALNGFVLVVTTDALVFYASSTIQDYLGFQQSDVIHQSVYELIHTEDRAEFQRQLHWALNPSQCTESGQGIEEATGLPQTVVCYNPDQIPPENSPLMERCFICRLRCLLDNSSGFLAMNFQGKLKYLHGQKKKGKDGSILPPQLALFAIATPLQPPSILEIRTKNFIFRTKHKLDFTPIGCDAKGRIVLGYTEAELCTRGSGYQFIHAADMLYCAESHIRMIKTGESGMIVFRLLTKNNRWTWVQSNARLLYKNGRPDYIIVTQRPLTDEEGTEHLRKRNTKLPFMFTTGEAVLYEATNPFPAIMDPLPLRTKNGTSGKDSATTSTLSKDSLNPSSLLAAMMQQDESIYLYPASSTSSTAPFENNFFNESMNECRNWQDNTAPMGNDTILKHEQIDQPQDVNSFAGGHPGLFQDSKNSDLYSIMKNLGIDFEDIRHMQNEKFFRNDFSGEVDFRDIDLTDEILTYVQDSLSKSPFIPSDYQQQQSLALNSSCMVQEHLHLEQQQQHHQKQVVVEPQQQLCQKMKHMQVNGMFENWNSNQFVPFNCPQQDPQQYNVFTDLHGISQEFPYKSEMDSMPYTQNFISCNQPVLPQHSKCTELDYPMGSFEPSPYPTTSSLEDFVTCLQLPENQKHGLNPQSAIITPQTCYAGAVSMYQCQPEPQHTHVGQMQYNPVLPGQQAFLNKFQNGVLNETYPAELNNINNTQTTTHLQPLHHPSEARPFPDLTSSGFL
Procedure: Examples were tested in selected biological assays one or more times. When tested more than once, data are reported as either average values or as median values, wherein • the average value, also referred to as the arithmetic mean value, represents the sum of the values obtained divided by the number of times tested, and • the median value represents the middle number of the group of values when ranked in ascending or descending order. If the number of values in the data set is odd, the median is the middle value. If the number of values in the data set is even, the median is the arithmetic mean of the two middle values.
Transactivation assays were carried out in U87 MG glioblastoma cells (ATCC #HTB-14) endogenously expressing AHR. In addition the cells were stably transfected with an AHR inducible firefly luciferase reporter gene construct that carried AHR-binding sites (DRE) in its promoter and a renilla reporter gene construct with constitutively active promoter. Kynurenic acid is an endogenous AHR activating ligand and was used to prestimulate test cells prior to testing the antagonistic properties of compounds.
As positive inhibition control cells supplemented with 150 μM kynurenic acid were incubated in presence of 5 μM Staurosporin. Normalization was done by positive and negative controls.
Firefly luciferase and Renilla activity was determined by the DualGlo Luciferase Assay System (Promega, #2920). Renilla activity was used to assess toxic effects of compounds.

Question: C[S+]([O-])c1ccccc1-c1nc2c3ccccc3nc(N[C@@H]3CCCCNC3=O)n2n1 (mixture of isomers) [Example 648, (3R)-3-[(2-{2-[methanesulfinyl]phenyl}[1,2,4]triazolo[1,5-c]quinazolin-5-yl)amino]azepan-2-one] was tested. Which IC50 did it give?
Answer: The IC50 was 6.89e-09 M.

Question: With O=C1NCCCC[C@H]1Nc1nc2ccccc2c2nc(-c3ccc(Cl)cc3OC(F)F)nn12 [Example 525, (3R)-3-({2-[4-chloro-2-(difluoromethoxy)phenyl][1,2,4]triazolo[1,5-c]quinazolin-5-yl}amino)azepan-2-one] as the molecule, how does the IC50 read?
Answer: The IC50 was 9.92e-10 M.

Question: Which IC50 does the source give for O=C1NCCCCCC1Nc1nc2ccccc2c2nc(-c3ccc(Cl)cc3OC(F)F)nn12 (stereo not drawn) [Example 529, 3-({2-[4-chloro-2-(difluoromethoxy)phenyl][1,2,4]triazolo[1,5-c]quinazolin-5-yl}amino)azocan-2-one] here?
Answer: The IC50 was 2.8e-09 M.

Question: For CN1CCCC[C@H](Nc2nc3ccccc3c3nc(-c4ccc(Cl)cc4OC(F)F)nn23)C1=O [Example 530, (3S)-3-({2-[4-chloro-2-(difluoromethoxy)phenyl][1,2,4]triazolo[1,5-c]quinazolin-5-yl}amino)-1-methylazepan-2-one], which IC50 is on record?
Answer: The IC50 was greater than 2e-05 M.

Question: For CC[C@@H](Nc1nc2ccccc2c2nc(-c3ccc(Cl)cc3OC(F)F)nn12)C(N)=O [Example 531, (2R)-2-({2-[4-chloro-2-(difluoromethoxy)phenyl][1,2,4]triazolo[1,5-c]quinazolin-5-yl}amino)butanamide], which IC50 is on record?
Answer: Its IC50 is 1.29e-09 M.

Question: With Cn1cc(-c2nc3c4cc(C(F)(F)F)ccc4nc(N[C@@H]4CCCCNC4=O)n3n2)cn1 [Example 546, (3R)-3-{[2-(1-methyl-1H-pyrazol-4-yl)-9-(trifluoromethyl)[1,2,4]triazolo[1,5-c]quinazolin-5-yl]amino}azepan-2-one] as the molecule, how does the IC50 read?
Answer: Its IC50 is 2.24e-06 M.

Question: For COc1ccc(-c2nc3c4cc(C5CC5)ccc4nc(N[C@@H]4CCCCNC4=O)n3n2)cc1 [Example 547, (3R)-3-{[9-cyclopropyl-2-(4-methoxyphenyl)[1,2,4]triazolo[1,5-c]quinazolin-5-yl]amino}azepan-2-one], which IC50 is on record?
Answer: Its IC50 is greater than 5.71e-06 M.

Question: Which IC50 does the source give for COc1ccc2c(c1)nc(N[C@@H]1CCCCNC1=O)n1nc(-c3cnn(C)c3)nc21 [Example 550] here?
Answer: Its IC50 is 5.35e-06 M.

Question: O=C1NCCCC[C@H]1Nc1nc2c(C(F)(F)F)cccc2c2nc(-c3cccc(F)c3)nn12 [Example 581, (3R)-3-{[2-(3-fluorophenyl)-7-(trifluoromethyl)[1,2,4]triazolo[1,5-c]quinazolin-5-yl]amino}azepan-2-one] was tested. Which IC50 did it give?
Answer: Its IC50 is 1.69e-09 M.

Question: With Cn1cc(-c2nc3c4cccc(C(F)(F)F)c4nc(N[C@@H]4CCNC4=O)n3n2)cn1 [Example 586, (3R)-3-{[2-(1-methyl-1H-pyrazol-4-yl)-7-(trifluoromethyl)[1,2,4]triazolo[1,5-c]quinazolin-5-yl]amino}pyrrolidin-2-one] as the molecule, how does the IC50 read?
Answer: Its IC50 is 2.79e-07 M.

Question: COc1cc2nc(N[C@@H]3CCCCNC3=O)n3nc(-c4cnn(C)c4)nc3c2cc1OC [Example 589, (3R)-3-{[8,9-dimethoxy-2-(1-methyl-1H-pyrazol-4-yl)[1,2,4]triazolo[1,5-c]quinazolin-5-yl]amino}azepan-2-one] was tested. Which IC50 did it give?
Answer: Its IC50 is greater than 2e-05 M.

Question: With COc1ccc(-c2nc3c4cc(OC)c(OC)cc4nc(N[C@@H]4CCCCNC4=O)n3n2)cc1 [Example 590, (3R)-3-{[8,9-dimethoxy-2-(4-methoxyphenyl)[1,2,4]triazolo[1,5-c]quinazolin-5-yl]amino}azepan-2-one] as the molecule, how does the IC50 read?
Answer: Its IC50 is 3.65e-07 M.

Question: How did the IC50 turn out when Nc1ccc(-c2nc3c4ccccc4nc(N[C@@H]4CCCCNC4=O)n3n2)cc1 [Example 620, (3R)-3-{[2-(4-aminophenyl)[1,2,4]triazolo[1,5-c]quinazolin-5-yl]amino}azepan-2-one] was run?
Answer: Its IC50 is 8.44e-08 M.

Question: With Cc1cc(-c2nc3c4ccccc4nc(N[C@@H]4CCCCNC4=O)n3n2)ccc1F [Example 626, (3R)-3-{[2-(4-fluoro-3-methylphenyl)[1,2,4]triazolo[1,5-c]quinazolin-5-yl]amino}azepan-2-one] as the molecule, how does the IC50 read?
Answer: Its IC50 is 9.2e-10 M.

Question: How did the IC50 turn out when COc1ccc(-c2nc3c4c(C(C)C)cccc4nc(N[C@@H]4CCCCNC4=O)n3n2)cc1 [Example 726, (3R)-3-{[2-(4-methoxyphenyl)-10-(propan-2-yl)[1,2,4]triazolo[1,5-c]quinazolin-5-yl]amino}azepan-2-one] was run?
Answer: The IC50 was 1.09e-05 M.

Question: Which IC50 does the source give for O=C1NCCCC[C@H]1Nc1nc2c(C(F)(F)F)cccc2c2nc(-c3nc(C4CC4)cs3)nn12 [Example 747, (3R)-3-{[2-(4-cyclopropyl-1,3-thiazol-2-yl)-7-(trifluoromethyl)[1,2,4]triazolo[1,5-c]quinazolin-5-yl]amino}azepan-2-one] here?
Answer: The IC50 was 1.65e-09 M.

Question: COc1cccc2c1nc(N[C@@H]1CCCCNC1=O)n1nc(-c3cn[nH]c3)nc21 [Example 755, (3R)-3-{[7-methoxy-2-(1H-pyrazol-4-yl)[1,2,4]triazolo[1,5-c]quinazolin-5-yl]amino}azepan-2-one] was tested. Which IC50 did it give?
Answer: Its IC50 is 9.19e-06 M.

same assay, conditions: AHR Antagonism Human IC50 [M], firefly luciferase reporter

Question: With COc1ccc(-c2nc3c4cccc(S(C)(=N)=O)c4nc(N[C@@H]4CCCCNC4=O)n3n2)cc1 (mixture of isomers) [Example 853, (3R)-3-{[7-(S-methanesulfonimidoyl)-2-(4-methoxyphenyl)[1,2,4]triazolo[1,5-c]quinazolin-5-yl]amino}azepan-2-one] as the molecule, how does the IC50 read?
Answer: The IC50 was 2.04e-09 M.

Question: For C[C@@H](Nc1nc2c(C(F)(F)F)cccc2c2nc(-c3cnn(C)c3)nn12)C(=O)N1CCC(N(C)C)C1 (mixture of isomers) [Example 876, (2R)-1-[(3R/S)-3-(dimethylamino)pyrrolidin-1-yl]-2-{[2-(1-methyl-1H-pyrazol-4-yl)-7-(trifluoromethyl)[1,2,4]triazolo[1,5-c]quinazolin-5-yl]amino}propan-1-one], which IC50 is on record?
Answer: Its IC50 is 5.39e-08 M.

Question: For Cn1cc(-c2nc3c4cccc(C(C)(C)O)c4nc(N[C@@H]4CCCCNC4=O)n3n2)cn1 [Example 861, (3R)-3-{[7-(2-hydroxypropan-2-yl)-2-(1-methyl-1H-pyrazol-4-yl)[1,2,4]triazolo[1,5-c]quinazolin-5-yl]amino}azepan-2-one], which IC50 is on record?
Answer: The IC50 was 1.34e-07 M.

Question: Which IC50 does the source give for C[C@@H](Nc1nc2c(C(F)(F)F)cccc2c2nc(-c3cnn(C)c3)nn12)C(=O)O [Example 869, N-[2-(1-methyl-1H-pyrazol-4-yl)-7-(trifluoromethyl)[1,2,4]triazolo[1,5-c]quinazolin-5-yl]-D-alanine] here?
Answer: Its IC50 is greater than 2e-05 M.

target: T2, AHR (Mus musculus, UniProt P30561); test: In vitro assay 3: antagonism in mouse cell line (AHR transactivation, firefly luciferase reporter, kynurenic acid prestimulated); format: cell-based; settings: Hepa 1c1c7 cells, 200 μM kynurenic acid, 20 hours, firefly luciferase reporter, read-out: AHR Antagonism Mouse IC50
T2 sequence (P30561 1-848 P471L/N533S/M589L): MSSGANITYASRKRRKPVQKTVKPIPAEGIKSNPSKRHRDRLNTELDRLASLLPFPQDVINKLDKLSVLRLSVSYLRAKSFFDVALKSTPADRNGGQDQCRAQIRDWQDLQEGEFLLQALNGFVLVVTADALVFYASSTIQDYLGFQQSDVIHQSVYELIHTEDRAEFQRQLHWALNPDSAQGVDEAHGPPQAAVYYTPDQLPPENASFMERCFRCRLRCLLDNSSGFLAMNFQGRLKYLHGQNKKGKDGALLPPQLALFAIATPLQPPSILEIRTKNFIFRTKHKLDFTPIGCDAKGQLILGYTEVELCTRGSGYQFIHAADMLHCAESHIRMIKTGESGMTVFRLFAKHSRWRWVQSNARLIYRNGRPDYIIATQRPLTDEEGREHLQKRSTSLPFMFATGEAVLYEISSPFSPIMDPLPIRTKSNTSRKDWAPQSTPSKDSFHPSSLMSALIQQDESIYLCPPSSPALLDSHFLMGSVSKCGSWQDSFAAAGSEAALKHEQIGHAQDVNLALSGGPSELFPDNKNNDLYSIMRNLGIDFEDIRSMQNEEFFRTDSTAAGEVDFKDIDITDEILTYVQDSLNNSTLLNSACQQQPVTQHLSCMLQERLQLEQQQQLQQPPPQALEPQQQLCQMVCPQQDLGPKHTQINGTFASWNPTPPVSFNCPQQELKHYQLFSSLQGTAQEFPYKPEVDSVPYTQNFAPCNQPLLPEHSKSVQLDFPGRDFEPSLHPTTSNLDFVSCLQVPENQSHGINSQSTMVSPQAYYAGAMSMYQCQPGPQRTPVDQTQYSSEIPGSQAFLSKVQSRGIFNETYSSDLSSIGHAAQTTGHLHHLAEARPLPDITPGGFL
Outline: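 Luminescence from an AHR-dependent DRE-luciferase reporter, stably integrated in mouse cells, quantifies blockade of kynurenic acid-driven activation. Unstimulated cells mark maximal inhibition; normalization uses both control types, and multiply tested compounds carry mean or median values.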

Question: For COc1ccc(-c2nc3c4cccc(S(C)(=N)=O)c4nc(N[C@@H]4CCCCNC4=O)n3n2)cc1 (mixture of isomers) [Example 853, (3R)-3-{[7-(S-methanesulfonimidoyl)-2-(4-methoxyphenyl)[1,2,4]triazolo[1,5-c]quinazolin-5-yl]amino}azepan-2-one], which IC50 is on record?
Answer: The IC50 was 68.6 nM.

Question: C[C@@H](Nc1nc2c(C(F)(F)F)cccc2c2nc(-c3cnn(C)c3)nn12)C(=O)N1CCC(N(C)C)C1 (mixture of isomers) [Example 876, (2R)-1-[(3R/S)-3-(dimethylamino)pyrrolidin-1-yl]-2-{[2-(1-methyl-1H-pyrazol-4-yl)-7-(trifluoromethyl)[1,2,4]triazolo[1,5-c]quinazolin-5-yl]amino}propan-1-one] was tested. Which IC50 did it give?
Answer: Its IC50 is 110 nM.

same assay, conditions: mouse Hepa 1c1c7 cells, 200 μM kynurenic acid, 20 hours, read-out: AHR Antagonism Mouse IC50

Question: For C[S+]([O-])c1ccccc1-c1nc2c3ccccc3nc(N[C@@H]3CCCCNC3=O)n2n1 (mixture of isomers) [Example 648, (3R)-3-[(2-{2-[methanesulfinyl]phenyl}[1,2,4]triazolo[1,5-c]quinazolin-5-yl)amino]azepan-2-one], which IC50 is on record?
Answer: Its IC50 is 3.63 nM.
